# Tests used:
# Format in all cases: physicochemical
# [1] = Polydispersity index (PDI) by dynamic light scattering; conditions: for PDI 1st IM / PDI 2nd IM: RSV-F replicon RNA LNP, DLS; for PDI 1st IM: 1st immunization; for PDI 2nd IM: 2nd immunization
# Experimental: Unless indicated otherwise, all PDIs referred to herein are the PDI of the fully formed nanoparticle, as measured by dynamic light scattering on a Malvern Zetasizer. The nanoparticle sample was diluted in phosphate buffered saline (PBS) so that the count rate was approximately 200-400 kcts. The data is presented in Table 3 as a weighted average of the intensity measure.
# (§1) % entrapment (% E), Concentration of RNA (Conc), particle size measured by DLS, and polydispersity reported by DLS of LNPs prepared with different cationic lipids
# [2] = Measurement of mRNA encapsulation in lipid nanoparticles (Quant-iT Ribogreen); conditions: for % encapsulation mRNA Leptin: Leptin mRNA in LNP
# Method in brief: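 LNPs were formed by T-junction mixing of ethanolic lipids (cationic lipid:DSPC:cholesterol:PEG lipid 40:10:38:2) with mRNA in citrate pH 5.8–6.0 at N:P 4:1, then dialysed against PBS overnight at 4 °C. RiboGreen fluorescence (ex 480/em 520 nm) was read on samples diluted 400–2,000-fold in TE with or without 0.75% Triton X-100 and quantified against standard curves. Encapsulation % = (Triton − buffer concentration)/Triton concentration.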
# [3] = Particle size of the lipid nanoparticle (Z-average, dynamic light scattering, Malvern Zetasizer); conditions: for Size 1st IM / Size 2nd IM: RSV-F replicon RNA LNP, DLS; for Size 1st IM: 1st immunization; for Size 2nd IM: 2nd immunization
# Text: The lipid nanoparticles have a size of about 1 to about 2,500 nm, about 10 to about 1,500 nm, about 20 to about 1,000 nm, in a sub-embodiment about 50 to about 600 nm, in a sub-embodiment about 50 to about 400 nm, in a sub-embodiment about 50 to about 250 nm, and in a sub-embodiment about 50 to about 150 nm. Unless indicated otherwise, all sizes referred to herein are the average sizes (diameters) of the fully formed nanoparticle, as measured by dynamic light scattering on a Malvern Zetasizer. The nanoparticle sample is diluted in phosphate buffered saline (PBS) so that the count rate is approximately 200-400 kcts. The data is presented as a weighted average of the intensity measure.
# Unless indicated otherwise, all particle size measurements referred to in Table 3 are the Z-average particle size of the fully formed nanoparticle, as measured by dynamic light scattering on a Malvern Zetasizer. The nanoparticle sample was diluted in phosphate buffered saline (PBS) so that the count rate is approximately 200-400 kcts.
# as §1
Structure (SMILES),PDI ([1]; FLuc mRNA),PDI ([1]; Gluc mRNA),PDI ([1]; hFIX mRNA),PDI ([1]; hLep plasmid),PDI ([1]; hLeptin mRNA),PDI ([1]; mEPO mRNA),PDI ([1]; pDNA),% Encap. ([2]; FLuc mRNA) [%],% Encap. ([2]; Gluc mRNA) [%],% encapsulation mRNA Leptin [2] [%],% Encap. ([2]; hFIX mRNA) [%],% Encap. ([2]; hLeptin mRNA) [%],% Encap. ([2]; mEPO mRNA) [%],Size ([3]; FLuc mRNA) [nm],Size ([3]; Gluc mRNA) [nm],Size ([3]; hFIX mRNA) [nm],Size ([3]; hLep plasmid) [nm],Size ([3]; hLeptin mRNA) [nm],Size ([3]; mEPO mRNA) [nm],Size ([3]; pDNA) [nm],other results
"CCCCC/C=C\C/C=C\CCCCCCCC(=O)OCC(COC(=O)CCCCCCC/C=C\C/C=C\CCCCC)COC(=O)C1(C)CCN(C)C1 (stereo not drawn) [Example 1, (9Z,9′Z,12Z,12′Z)-2-(((1,3-dimethylpyrrolidine-3-carbonyl)oxy)methyl)propane-1,3-diyl bis(octadeca-9,12-dienoate)]",0.152,0.136,0.090,0.182,0.105,0.145,0.100,86.8,92.3,96.7,89.5,96.7,94.7,119.0,95.7,126.9,105.1,100.0,107.2,100.7,PDI ([1]; FVII siRNA): 0.049; PDI 1st IM [1]: 0.122; PDI 2nd IM [1]: 0.11; Size ([3]; FVII siRNA): 102.3 nm; Size 1st IM [3]: 139.1 nm; Size 2nd IM [3]: 133.5 nm
"CCCCC/C=C\C/C=C\CCCCCCCC(=O)OCC(COC(=O)CCC(OCCCCCCCC)OCCCCCCCC)COC(=O)OCCCN(CC)CC (stereo not drawn) [Example 13, (9Z,12Z)-3-((4,4-bis(octyloxy)butanoyl)oxy)-2-((((3-(diethylamino)propoxy)carbonyl)oxy)methyl)propyl octadeca-9,12-dienoate]",0.140,0.099,0.154,0.158,0.093,0.129,0.160,98.3,97.2,90.7,96.4,95.4,98.5,121.9,90.8,122.4,121.5,127.6,113.7,95.12,PDI ([1]; FVII siRNA): 0.037; Size ([3]; FVII siRNA): 101.5 nm
"CCCCC/C=C\C/C=C\CCCCCCCC(=O)OCC(COC(=O)CCC(OCCCCCCCC)OCCCCCCCC)COC(=O)OCC1CCCN(CC)C1 (stereo not drawn) [Example 15, (9Z,12Z)-3-((4,4-bis(octyloxy)butanoyl)oxy)-2-(((((1-ethylpiperidin-3-yl)methoxy)carbonyl)oxy)methyl)propyl octadeca-9,12-dienoate]",0.132,0.133,0.182,0.149,0.125,0.125,0.110,98.1,98.1,97.3,98.4,97.3,98.3,100.7,84.7,96.8,94.5,119.8,90.1,86.9,PDI 1st IM [1]: 0.121; PDI 2nd IM [1]: 0.097; Size 1st IM [3]: 144.7 nm; Size 2nd IM [3]: 139.4 nm
